Experimental data reported in ChEMBL document CHEMBL1152511, “Structural basis for alpha-conotoxin potency and selectivity” (Bioorg Med Chem, 2009).
Residues, ends and D or L forms follow the SMILES beside them.

How the values were obtained:
[1] = Selectivity for alpha3beta2 nAChR over alpha6beta2 nAChR
[2] = molecular target: Neuronal acetylcholine receptor; alpha6/beta2 (Homo sapiens, UniProt P17787+Q15825); assay: Inhibition of alpha6beta2 nAChR; type: protein-complex assay
[3] = molecular target: Neuronal acetylcholine receptor; alpha3/beta2 (Homo sapiens, UniProt P17787+P32297); assay: Inhibition of alpha3beta2 nAChR; type: protein-complex assay
Chain of Neuronal acetylcholine receptor; alpha3/beta2 (P17787 whole entry): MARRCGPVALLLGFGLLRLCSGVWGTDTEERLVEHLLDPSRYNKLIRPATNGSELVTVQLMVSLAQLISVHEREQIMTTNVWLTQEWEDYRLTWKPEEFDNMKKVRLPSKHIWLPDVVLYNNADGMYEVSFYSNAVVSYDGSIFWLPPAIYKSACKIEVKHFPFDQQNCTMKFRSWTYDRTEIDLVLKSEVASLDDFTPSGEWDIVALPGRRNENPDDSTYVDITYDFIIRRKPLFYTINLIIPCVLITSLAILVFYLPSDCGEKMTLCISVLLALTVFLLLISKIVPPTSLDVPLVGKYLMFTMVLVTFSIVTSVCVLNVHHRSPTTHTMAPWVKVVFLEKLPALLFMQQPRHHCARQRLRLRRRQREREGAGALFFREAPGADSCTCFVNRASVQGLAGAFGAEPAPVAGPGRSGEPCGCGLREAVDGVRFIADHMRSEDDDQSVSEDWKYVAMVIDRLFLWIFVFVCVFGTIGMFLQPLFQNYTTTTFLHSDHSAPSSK
Chain of Neuronal acetylcholine receptor; alpha3/beta2 (P32297 whole entry): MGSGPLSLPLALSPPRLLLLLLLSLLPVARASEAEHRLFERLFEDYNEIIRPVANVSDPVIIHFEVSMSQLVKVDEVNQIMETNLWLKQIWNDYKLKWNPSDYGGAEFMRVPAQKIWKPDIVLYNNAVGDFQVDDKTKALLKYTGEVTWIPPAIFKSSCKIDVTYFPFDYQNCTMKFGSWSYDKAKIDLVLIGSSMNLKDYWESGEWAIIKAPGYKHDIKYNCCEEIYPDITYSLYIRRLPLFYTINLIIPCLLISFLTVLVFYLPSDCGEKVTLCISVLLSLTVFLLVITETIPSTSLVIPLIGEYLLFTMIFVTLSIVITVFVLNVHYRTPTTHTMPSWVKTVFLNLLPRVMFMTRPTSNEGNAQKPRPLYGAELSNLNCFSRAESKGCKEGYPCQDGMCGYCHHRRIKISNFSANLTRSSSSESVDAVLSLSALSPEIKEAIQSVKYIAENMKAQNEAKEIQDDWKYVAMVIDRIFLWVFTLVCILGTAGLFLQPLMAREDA

[4] = Selectivity ratio of IC50 for alpha6beta2 nAChR to IC50 for alpha3beta2 nAChR

Chain of Neuronal acetylcholine receptor; alpha6/beta2 (P17787 whole entry): as the sequence (P17787 whole entry) above
Chain of Neuronal acetylcholine receptor; alpha6/beta2 (Q15825 whole entry): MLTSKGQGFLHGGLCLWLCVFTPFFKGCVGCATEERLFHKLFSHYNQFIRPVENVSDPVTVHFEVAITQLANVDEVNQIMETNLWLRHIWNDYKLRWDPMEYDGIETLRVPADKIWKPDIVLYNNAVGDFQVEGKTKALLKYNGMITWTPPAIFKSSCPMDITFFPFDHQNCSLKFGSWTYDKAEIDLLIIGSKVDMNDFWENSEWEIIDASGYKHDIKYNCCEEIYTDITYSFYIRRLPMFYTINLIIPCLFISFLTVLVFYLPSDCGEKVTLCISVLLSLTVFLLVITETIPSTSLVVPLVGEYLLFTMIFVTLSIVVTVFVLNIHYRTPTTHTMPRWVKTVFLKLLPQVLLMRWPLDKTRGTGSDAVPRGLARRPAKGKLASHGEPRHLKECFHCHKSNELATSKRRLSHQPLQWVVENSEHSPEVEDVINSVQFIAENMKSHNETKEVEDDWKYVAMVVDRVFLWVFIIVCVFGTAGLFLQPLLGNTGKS

## CC(C)C[C@H](NC(=O)[C@@H](NC(=O)[C@H](C)NC(=O)[C@H](CS)NC(=O)[C@@H]1CCCN1C(=O)[C@@H]1CCCN1C(=O)[C@@H](NC(=O)[C@H](CO)NC(=O)[C@H](CS)NC(=O)[C@H](CS)NC(=O)CN)[C@@H](C)O)C(C)C)C(=O)N[C@@H](Cc1ccc(O)cc1)C(=O)N[C@@H](CS)C(=O)O (H-GCCSTPPCAVLYC-OH)
[1]
  Selectivity ratio: 20
[2]
  IC50: 0.26 nM
[3]
  IC50: 5.72 nM
[4]
  Ratio IC50: 22

## CC[C@H](C)[C@H](NC(=O)[C@H](CS)NC(=O)[C@@H]1CCCN1C(=O)[C@@H]1CCCN1C(=O)[C@H](CCCNC(=N)N)NC(=O)[C@H](CO)NC(=O)[C@H](CS)NC(=O)[C@H](CS)NC(=O)CN)C(=O)N[C@@H](C)C(=O)N[C@@H](CC(N)=O)C(=O)N[C@@H](CC(N)=O)C(=O)N1CCC[C@H]1C(=O)N[C@@H](CC(=O)O)C(=O)N[C@@H](CC(C)C)C(=O)N[C@@H](CS)C(=O)O
[3]
  IC50: 3.5 nM

## CC[C@H](C)[C@H](NC(=O)[C@H](Cc1cnc[nH]1)NC(=O)[C@@H]1CCCN1C(=O)[C@H](CC(N)=O)NC(=O)[C@H](CC(N)=O)NC(=O)[C@@H](NC(=O)[C@H](CC(N)=O)NC(=O)[C@H](CS)NC(=O)[C@H](C)NC(=O)[C@@H]1CCCN1C(=O)[C@H](Cc1cnc[nH]1)NC(=O)[C@H](CO)NC(=O)[C@H](CS)NC(=O)[C@H](CS)NC(=O)CN)C(C)C)C(=O)N[C@@H](CS)C(=O)NCC(=O)O (H-GCCSHPACNVNNPHICG-OH)
[1]
  Selectivity ratio: 20
[2]
  IC50: 201 nM
[3]
  IC50: 11 nM
[4]
  Ratio IC50: 0.0547
